# Source: patent US20210045385A1, “PYRIDAZINONE-SUBSTITUTED KETOXIMES AS HERBICIDES” (FMC Corporation, priority 2018, published 2021)
# Experiments:
# Format in all cases: in vivo
# [1] = test system: barnyardgrass (Echinochloa crus-galli); test: Test C postemergence, visual plant response rating
# Summary of the method: (§1)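 Compounds in a non-phytotoxic solvent with surfactant were applied as a directed soil spray preemergence or to 2–10 cm, one- to two-leaf plants postemergence, in loam–sand soil. After about 10 d in a greenhouse, injury was visually rated against untreated controls on a 0–100 scale (100 = complete control).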
# [2] = test system: galium (catchweed bedstraw, Galium aparine); test: Test C postemergence, visual plant response rating
# Summary of the method: as §1
# corn (Zea mays) = test: Test C postemergence, visual plant response rating
# Summary of the method: as §1
# kochia (Bassia scoparia) [3] = test: Test C postemergence, visual plant response rating
# Summary of the method: as §1
# [4] = test system: pigweed (Amaranthus retroflexus); test: Test C postemergence, visual plant response rating
# Summary of the method: as §1
# [5] = test system: wheat (Triticum aestivum); test: Test C postemergence, visual plant response rating
# Summary of the method: as §1
# [6] = test system: Italian ryegrass (Lolium mutiflorum); test: Test C postemergence, visual plant response rating
# Summary of the method: as §1
# [7] = test system: foxtail, giant (giant foxtail, Setaria faberi); test: Test C postemergence, visual plant response rating
# Summary of the method: as §1
# [8] = test system: blackgrass (Alopecurus myosuroides); test: Test C postemergence, visual plant response rating
# Summary of the method: as §1
# [9] = test system: ragweed (common ragweed, Ambrosia artemisiifolia); test: Test C postemergence, visual plant response rating
# Summary of the method: as §1
# [10] = test system: barnyardgrass (Echinochloa crus-galli); test: Test C preemergence, visual plant response rating; conditions: Test C, 0 is no effect, 100 is complete control
# Summary of the method: as §1
# kochia (Bassia scoparia) [11] = test: Test C preemergence, visual plant response rating; conditions: Test C, 0 is no effect, 100 is complete control
# Summary of the method: as §1
# [12] = test system: pigweed (Amaranthus retroflexus); test: Test C preemergence, visual plant response rating; conditions: Test C, 0 is no effect, 100 is complete control
# Summary of the method: as §1
# [13] = test system: Italian ryegrass (Lolium mutiflorum); test: Test C preemergence, visual plant response rating; conditions: Test C, 0 is no effect, 100 is complete control
# Summary of the method: as §1
# [14] = test system: foxtail, giant (giant foxtail, Setaria faberi); test: Test C preemergence, visual plant response rating; conditions: Test C, 0 is no effect, 100 is complete control
# Summary of the method: as §1
# [15] = test system: ragweed (common ragweed, Ambrosia artemisiifolia); test: Test C preemergence, visual plant response rating; conditions: Test C, 0 is no effect, 100 is complete control
# Summary of the method: as §1
# [16] = test system: barnyardgrass (Echinochloa crus-galli); test: Test D flooded paddy test, visual plant response rating; conditions: 250 g ai/ha, scale 0 to 100 (0 no effect, 100 complete control), 13 to 15 d
# Summary of the method: (§2)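 Plants were grown to the 2-leaf stage, pots flooded to 3 cm above soil, and compound applied directly into the paddy water, with the depth held throughout. After 13 to 15 d in a greenhouse, response was rated visually against untreated controls on a 0–100 scale (0 no effect, 100 complete control).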
# [17] = test system: sedge umbrella (small-flower umbrella sedge, Cyperus difformis); test: as above; conditions: 250 g ai/ha, scale 0 to 100 (0 no effect, 100 complete control), 13 to 15 d
# Summary of the method: as §2
# rice (Oryza sativa) = test: as above; conditions: 250 g ai/ha, scale 0 to 100 (0 no effect, 100 complete control), 13 to 15 d
# Summary of the method: as §2
# [18] = test system: duck salad (Heteranthera limosa); test: as above; conditions: 250 g ai/ha, scale 0 to 100 (0 no effect, 100 complete control), 13 to 15 d
# Summary of the method: as §2
# [19] = Test C, postemergence, 125 g ai/ha
Compound,"Barnyardgrass plant response rating (0 to 100 scale) ([1]; Postemergence, 31 g ai/ha)","Barnyardgrass plant response rating (0 to 100 scale) [1, 19]","Galium plant response rating (0 to 100 scale) ([2]; Postemergence, 31 g ai/ha)","Galium plant response rating (0 to 100 scale) [2, 19]","Corn plant response rating (0 to 100 scale) (corn (Zea mays); Postemergence, 31 g ai/ha)",Corn plant response rating (0 to 100 scale) (corn (Zea mays); [19]),"Kochia plant response rating (0 to 100 scale) (kochia (Bassia scoparia) [3]; Postemergence, 31 g ai/ha)",Kochia plant response rating (0 to 100 scale) (kochia (Bassia scoparia) [3]; [19]),"Pigweed plant response rating (0 to 100 scale) ([4]; Postemergence, 31 g ai/ha)","Pigweed plant response rating (0 to 100 scale) [4, 19]","Wheat plant response rating (0 to 100 scale) ([5]; Postemergence, 31 g ai/ha)","Wheat plant response rating (0 to 100 scale) [5, 19]","Ryegrass, Italian plant response rating (0 to 100 scale) ([6]; Postemergence, 31 g ai/ha)","Ryegrass, Italian plant response rating (0 to 100 scale) [6, 19]","Foxtail, Giant plant response rating (0 to 100 scale) ([7]; Postemergence, 31 g ai/ha)","Foxtail, Giant plant response rating (0 to 100 scale) [7, 19]","Blackgrass plant response rating (0 to 100 scale) ([8]; Postemergence, 31 g ai/ha)","Blackgrass plant response rating (0 to 100 scale) [8, 19]","Ragweed plant response rating (0 to 100 scale) ([9]; Postemergence, 31 g ai/ha)","Ragweed plant response rating (0 to 100 scale) [9, 19]",also measured
CO/N=C(/c1cccc(/C=C\Cl)c1)c1c(O)c(C)nn(C)c1=O [Compound 287],0,60,50,70,0,10,0,10,10,20,0,0,20,80,10,70,10,30,20,50,"Barnyardgrass plant response rating (0 to 100 scale) ([10]; 31 g ai/ha): 40; Barnyardgrass plant response rating (0 to 100 scale) ([10]; 125 g ai/ha): 90; Kochia plant response rating (0 to 100 scale) (kochia (Bassia scoparia) [11]; 31 g ai/ha): 0; Kochia plant response rating (0 to 100 scale) (kochia (Bassia scoparia) [11]; 125 g ai/ha): 0; Pigweed plant response rating (0 to 100 scale) ([12]; 31 g ai/ha): 0; Pigweed plant response rating (0 to 100 scale) ([12]; 125 g ai/ha): 0; Ryegrass, Italian plant response rating (0 to 100 scale) ([13]; 31 g ai/ha): 50; Ryegrass, Italian plant response rating (0 to 100 scale) ([13]; 125 g ai/ha): 90; Foxtail, Giant plant response rating (0 to 100 scale) ([14]; 31 g ai/ha): 10; Foxtail, Giant plant response rating (0 to 100 scale) ([14]; 125 g ai/ha): 40; Ragweed plant response rating (0 to 100 scale) ([15]; 31 g ai/ha): 0; Ragweed plant response rating (0 to 100 scale) ([15]; 125 g ai/ha): 20; Plant response rating, Barnyardgrass (Flood) [16]: 0; Plant response rating, Sedge, Umbrella (Flood) [17]: 0; Plant response rating, Rice (Flood) (rice (Oryza sativa)): 0; Plant response rating, Ducksalad (Flood) [18]: 0"
CO/N=C(/c1c(O)c(C)nn(C)c1=O)c1cc(SC)cc2ccccc12 [Compound 298],0,0,0,30,0,0,0,10,0,40,0,0,0,0,0,0,0,20,0,10,"Barnyardgrass plant response rating (0 to 100 scale) ([10]; 31 g ai/ha): 0; Barnyardgrass plant response rating (0 to 100 scale) ([10]; 125 g ai/ha): 0; Kochia plant response rating (0 to 100 scale) (kochia (Bassia scoparia) [11]; 31 g ai/ha): 0; Kochia plant response rating (0 to 100 scale) (kochia (Bassia scoparia) [11]; 125 g ai/ha): 0; Pigweed plant response rating (0 to 100 scale) ([12]; 31 g ai/ha): 0; Pigweed plant response rating (0 to 100 scale) ([12]; 125 g ai/ha): 10; Ryegrass, Italian plant response rating (0 to 100 scale) ([13]; 31 g ai/ha): 0; Ryegrass, Italian plant response rating (0 to 100 scale) ([13]; 125 g ai/ha): 0; Foxtail, Giant plant response rating (0 to 100 scale) ([14]; 31 g ai/ha): 0; Foxtail, Giant plant response rating (0 to 100 scale) ([14]; 125 g ai/ha): 0; Ragweed plant response rating (0 to 100 scale) ([15]; 31 g ai/ha): 0; Ragweed plant response rating (0 to 100 scale) ([15]; 125 g ai/ha): 0; Plant response rating, Barnyardgrass (Flood) [16]: 0; Plant response rating, Sedge, Umbrella (Flood) [17]: 0; Plant response rating, Rice (Flood) (rice (Oryza sativa)): 0; Plant response rating, Ducksalad (Flood) [18]: 0"
CO/N=C(\c1cccc(/C=C\Cl)c1)c1c(O)c(C)nn(C)c1=O [Compound 288],70,100,60,80,10,20,10,30,0,30,0,0,40,100,80,90,40,40,30,60,"Barnyardgrass plant response rating (0 to 100 scale) ([10]; 31 g ai/ha): 70; Barnyardgrass plant response rating (0 to 100 scale) ([10]; 125 g ai/ha): 100; Kochia plant response rating (0 to 100 scale) (kochia (Bassia scoparia) [11]; 31 g ai/ha): 0; Kochia plant response rating (0 to 100 scale) (kochia (Bassia scoparia) [11]; 125 g ai/ha): 30; Pigweed plant response rating (0 to 100 scale) ([12]; 31 g ai/ha): 0; Pigweed plant response rating (0 to 100 scale) ([12]; 125 g ai/ha): 0; Ryegrass, Italian plant response rating (0 to 100 scale) ([13]; 31 g ai/ha): 70; Ryegrass, Italian plant response rating (0 to 100 scale) ([13]; 125 g ai/ha): 100; Foxtail, Giant plant response rating (0 to 100 scale) ([14]; 31 g ai/ha): 40; Foxtail, Giant plant response rating (0 to 100 scale) ([14]; 125 g ai/ha): 100; Ragweed plant response rating (0 to 100 scale) ([15]; 31 g ai/ha): 10; Ragweed plant response rating (0 to 100 scale) ([15]; 125 g ai/ha): 20; Plant response rating, Barnyardgrass (Flood) [16]: 0; Plant response rating, Sedge, Umbrella (Flood) [17]: 0; Plant response rating, Rice (Flood) (rice (Oryza sativa)): 0; Plant response rating, Ducksalad (Flood) [18]: 0"
C#CCO/N=C(/c1cccc(/C=C\Cl)c1)c1c(O)c(C)nn(C)c1=O [Compound 261],20,40,40,80,0,10,30,60,50,60,0,50,0,60,10,50,0,60,40,60,"Barnyardgrass plant response rating (0 to 100 scale) ([10]; 31 g ai/ha): 0; Barnyardgrass plant response rating (0 to 100 scale) ([10]; 125 g ai/ha): 0; Kochia plant response rating (0 to 100 scale) (kochia (Bassia scoparia) [11]; 31 g ai/ha): 0; Kochia plant response rating (0 to 100 scale) (kochia (Bassia scoparia) [11]; 125 g ai/ha): 0; Pigweed plant response rating (0 to 100 scale) ([12]; 31 g ai/ha): 0; Pigweed plant response rating (0 to 100 scale) ([12]; 125 g ai/ha): 10; Ryegrass, Italian plant response rating (0 to 100 scale) ([13]; 31 g ai/ha): 0; Ryegrass, Italian plant response rating (0 to 100 scale) ([13]; 125 g ai/ha): 70; Foxtail, Giant plant response rating (0 to 100 scale) ([14]; 31 g ai/ha): 0; Foxtail, Giant plant response rating (0 to 100 scale) ([14]; 125 g ai/ha): 10; Ragweed plant response rating (0 to 100 scale) ([15]; 31 g ai/ha): 0; Ragweed plant response rating (0 to 100 scale) ([15]; 125 g ai/ha): 10; Plant response rating, Barnyardgrass (Flood) [16]: 0; Plant response rating, Sedge, Umbrella (Flood) [17]: 0; Plant response rating, Rice (Flood) (rice (Oryza sativa)): 0; Plant response rating, Ducksalad (Flood) [18]: 0"
